Data published in patent publication US9409905B2, “Antibacterial compounds and methods for use” (PTC THERAPEUTICS, INC., priority 2011, dated 2016).
Converted amounts (≈) assume the structure as drawn.

Columns and labels:
[1] = tested on: Escherichia coli (E. coli) BAS849; test: Antibacterial activity, microbroth dilution MIC (Table 1); assay type: cell-based; settings: microbroth dilution, super sensitive Gram-negative E. coli BAS849, read-out: MIC, BAS849
Procedure, shortened: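 Microbroth dilution was used. MIC, in μg/mL, is the lowest drug concentration preventing macroscopically visible growth under the test conditions.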

[2] = tested on: Staphylococcus aureus (S. aureus) 29213; test: as above; assay type: cell-based; settings: microbroth dilution, Gram-positive S. aureus 29213, read-out: MIC, 29213
Procedure, shortened: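 MIC (μg/mL) is taken as the lowest concentration with no macroscopically visible growth. Strains tested by microbroth dilution: Gram-positive S. aureus 29213, control Gram-negative E. coli 25922, and super-sensitive E. coli BAS849.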

E. coli 25922 = test: as above; assay type: cell-based, Escherichia coli; settings: Escherichia coli; microbroth dilution; control Gram-negative E. coli 25922 strain; read-out: MIC, 25922
Procedure, shortened: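 Lowest concentration stopping macroscopically visible growth under test conditions, by broth microdilution, defines the MIC (μg/mL).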

E. coli LZ3111 = test: Antibacterial activity, MIC, quinolone resistant strain (Table 2); assay type: cell-based; settings: Escherichia coli, LZ3111, read-out: MIC LZ3111
Procedure, shortened: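 MIC values (μg/mL) came from a microbroth dilution assay, scored as the lowest drug concentration at which no growth was visible by eye.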

E. coli ELZ4000 = test: Antibacterial activity, MIC, multi-drug resistant clinical isolate (Table 3); assay type: cell-based; settings: Escherichia coli, ELZ4000, read-out: MIC ELZ4000
Description: (§1) The antibacterial activity from a microbroth dilution method may be presented as the minimum inhibitory concentration (MIC in μg/mL). The MIC value is the lowest concentration of drug which prevents macroscopically visible growth under test conditions.
(§2) Antibacterial activity of test compounds against E. coli ELZ4000 and E. coli ELZ4251 multi-drug resistant clinical isolates is shown in Table 3.

E. coli ELZ4251 = test: as above; assay type: cell-based; settings: Escherichia coli
Description: as §1, §2

[3] = tested on: Acinetobacter baumannii (A. baumannii) BAA747; test: Antibacterial activity, MIC (Table 4); assay type: cell-based; settings: A. baumannii BAA747, read-out: MIC, BAA747
Procedure, shortened: (§3)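 Activity was measured by microbroth dilution. The MIC, in μg/mL, is the lowest drug concentration that prevents macroscopically visible growth under the test conditions. The resistant strains are multi-drug resistant clinical isolates.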

A. baumannii MXX2240 = test: Antibacterial activity, MIC, resistant strain (Table 4); assay type: cell-based; settings: Acinetobacter baumannii, MXX2240; resistant A. baumannii MMX2240, multi-drug resistant clinical isolate; read-out: MIC, MMX2240
Procedure, shortened: as §3

K. pneumoniae MXX1232 = test: as above; assay type: cell-based; settings: Klebsiella pneumoniae, MXX1232; resistant K. pneumoniae MMX1232, multi-drug resistant clinical isolate; read-out: MIC, MMX1232
Procedure, shortened: as §3

[4] = tested on: Pseudomonas aeruginosa (P. aeruginosa) 27853; test: Antibacterial activity, MIC (Table 5); assay type: cell-based; settings: P. aeruginosa 27853, read-out: MIC, 27853
Procedure, shortened: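 Values are MICs in μg/mL, read as the lowest concentration at which no growth is visible by eye. They were determined by a microbroth dilution method.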

[5] = tested on: Klebsiella pneumoniae (K. pneumoniae) 35657; test: Antibacterial activity, MIC (Table 4); assay type: cell-based; settings: K. pneumoniae 35657, read-out: MIC, 35657
Procedure, shortened: as §3

Row | SMILES | MIC [1] | MIC [2] | MIC (E. coli 25922) | MIC (E. coli LZ3111) | MIC (E. coli ELZ4000) | MIC (E. coli ELZ4251) | MIC [3] | MIC (A. baumannii MXX2240) | MIC (K. pneumoniae MXX1232) | MIC [4] | MIC [5]
1 | CCc1c(-c2ccc3c(c2)cc(CN2CC(CO)C2)n3C)[nH]c(=O)c(C(=O)O)c1O [Cpd 271, 5-ethyl-4-hydroxy-6-(2-((3-(hydroxymethyl)azetidin-1-yl)methyl)-1-methyl-1H-indol-5-yl)-2-oxo-1,2-dihydropyridine-3-carboxylic acid] | < 1 µg/mL | 12.5 to 150 µg/mL (≈ 30.4 to 365 µM) | < 1 µg/mL | 3.5 to 12.5 µg/mL (≈ 8.51 to 30.4 µM) | 12.5 to 150 µg/mL (≈ 30.4 to 365 µM) | 3.5 to 12.5 µg/mL (≈ 8.51 to 30.4 µM) | 1 to 3.5 µg/mL (≈ 2.43 to 8.51 µM) | 12.5 to 150 µg/mL (≈ 30.4 to 365 µM) | 12.5 to 150 µg/mL (≈ 30.4 to 365 µM) | 3.5 to 12.5 µg/mL (≈ 8.51 to 30.4 µM) | 
2 | Cn1c(CN2CCC2)cc2cc(-c3cc(O)c(C(=O)O)c(=O)[nH]3)ccc21 [Cpd 328, 6-(2-(azetidin-1-ylmethyl)-1-methyl-1H-indol-5-yl)-4-hydroxy-2-oxo-1,2-dihydropyridine-3-carboxylic acid] | 3.5 to 12.5 µg/mL (≈ 9.9 to 35.4 µM) | 12.5 to 150 µg/mL (≈ 35.4 to 424 µM) | 12.5 to 150 µg/mL (≈ 35.4 to 424 µM) | 3.5 to 12.5 µg/mL (≈ 9.9 to 35.4 µM) | 12.5 to 150 µg/mL (≈ 35.4 to 424 µM) | 12.5 to 150 µg/mL (≈ 35.4 to 424 µM) | 12.5 to 150 µg/mL (≈ 35.4 to 424 µM) |  |  | 12.5 to 150 µg/mL (≈ 35.4 to 424 µM) | 
3 | CCc1c(-c2ccc3c(c2)cc(CN2CCC(OC)C2)n3C)[nH]c(=O)c(C(=O)O)c1O (centres unmarked) [Cpd 179, 5-ethyl-4-hydroxy-6-(2-((3-methoxypyrrolidin-1-yl)methyl)-1-methyl-1H-indol-5-yl)-2-oxo-1,2-dihydropyridine-3-carboxylic acid] | < 1 µg/mL | 3.5 to 12.5 µg/mL (≈ 8.23 to 29.4 µM) | 1 to 3.5 µg/mL (≈ 2.35 to 8.23 µM) | 3.5 to 12.5 µg/mL (≈ 8.23 to 29.4 µM) | 12.5 to 150 µg/mL (≈ 29.4 to 353 µM) | 3.5 to 12.5 µg/mL (≈ 8.23 to 29.4 µM) | 1 to 3.5 µg/mL (≈ 2.35 to 8.23 µM) | 3.5 to 12.5 µg/mL (≈ 8.23 to 29.4 µM) | 12.5 to 150 µg/mL (≈ 29.4 to 353 µM) | 12.5 to 150 µg/mL (≈ 29.4 to 353 µM) | 
4 | CCc1c(-c2ccc3c(c2)cc(CN2CC(F)C2)n3C)[nH]c(=O)c(C(=O)O)c1O [Cpd 194, 5-ethyl-6-(2-((3-fluoroazetidin-1-yl)methyl)-1-methyl-1H-indol-5-yl)-4-hydroxy-2-oxo-1,2-dihydropyridine-3-carboxylic acid] | < 1 µg/mL | 3.5 to 12.5 µg/mL (≈ 8.76 to 31.3 µM) | 1 to 3.5 µg/mL (≈ 2.5 to 8.76 µM) | 3.5 to 12.5 µg/mL (≈ 8.76 to 31.3 µM) | 12.5 to 150 µg/mL (≈ 31.3 to 376 µM) | 12.5 to 150 µg/mL (≈ 31.3 to 376 µM) | 1 to 3.5 µg/mL (≈ 2.5 to 8.76 µM) | 3.5 to 12.5 µg/mL (≈ 8.76 to 31.3 µM) | 12.5 to 150 µg/mL (≈ 31.3 to 376 µM) | 12.5 to 150 µg/mL (≈ 31.3 to 376 µM) | 
5 | CCc1c(-c2ccc3c(c2)cc(CN2C[C@H]4C[C@@H](NC)C[C@H]4C2)n3C)[nH]c(=O)c(C(=O)O)c1O [Cpd 289, 5-ethyl-4-hydroxy-6-(1-methyl-2-(((3aR,5r,6aS)-5-(methylamino)hexahydrocyclopenta[c]pyrrol-2(1H)-yl)methyl)-1H-indol-5-yl)-2-oxo-1,2-dihydropyridine-3-carboxylic acid] | 1 to 3.5 µg/mL (≈ 2.15 to 7.53 µM) | 12.5 to 150 µg/mL (≈ 26.9 to 323 µM) | 12.5 to 150 µg/mL (≈ 26.9 to 323 µM) | 3.5 to 12.5 µg/mL (≈ 7.53 to 26.9 µM) | 12.5 to 150 µg/mL (≈ 26.9 to 323 µM) | 12.5 to 150 µg/mL (≈ 26.9 to 323 µM) | 12.5 to 150 µg/mL (≈ 26.9 to 323 µM) |  |  | 12.5 to 150 µg/mL (≈ 26.9 to 323 µM) | 
6 | CCc1c(-c2ccc3c(c2)cc(CN2CCCC2CN(C)C)n3C)[nH]c(=O)c(C(=O)O)c1O (centres unmarked) [Cpd 202, 6-(2-((2-((dimethylamino)methyl)pyrrolidin-1-yl)methyl)-1-methyl-1H-indol-5-yl)-5-ethyl-4-hydroxy-2-oxo-1,2-dihydropyridine-3-carboxylic acid] | < 1 µg/mL | 12.5 to 150 µg/mL (≈ 27.6 to 331 µM) | 3.5 to 12.5 µg/mL (≈ 7.73 to 27.6 µM) | 3.5 to 12.5 µg/mL (≈ 7.73 to 27.6 µM) | 12.5 to 150 µg/mL (≈ 27.6 to 331 µM) | 12.5 to 150 µg/mL (≈ 27.6 to 331 µM) | 12.5 to 150 µg/mL (≈ 27.6 to 331 µM) |  |  | 12.5 to 150 µg/mL (≈ 27.6 to 331 µM) | 
7 | Cn1c(CN2CCC2)cc2cc(-c3[nH]c(=O)c(C(=O)O)c(O)c3C3CC3)ccc21 [Cpd 324, 6-(2-(azetidin-1-ylmethyl)-1-methyl-1H-indol-5-yl)-5-cyclopropyl-4-hydroxy-2-oxo-1,2-dihydropyridine-3-carboxylic acid] | 1 to 3.5 µg/mL (≈ 2.54 to 8.9 µM) | 12.5 to 150 µg/mL (≈ 31.8 to 381 µM) | 12.5 to 150 µg/mL (≈ 31.8 to 381 µM) | 3.5 to 12.5 µg/mL (≈ 8.9 to 31.8 µM) | 3.5 to 12.5 µg/mL (≈ 8.9 to 31.8 µM) | 3.5 to 12.5 µg/mL (≈ 8.9 to 31.8 µM) | 12.5 to 150 µg/mL (≈ 31.8 to 381 µM) |  |  | 12.5 to 150 µg/mL (≈ 31.8 to 381 µM) | 
8 | CCc1c(-c2ccc3c(c2)cc(CN2CC[C@@H](F)C2)n3C)[nH]c(=O)c(C(=O)O)c1O [Cpd 177, (R)-5-ethyl-6-(2-((3-fluoropyrrolidin-1-yl)methyl)-1-methyl-1H-indol-5-yl)-4-hydroxy-2-oxo-1,2-dihydropyridine-3-carboxylic acid] | < 1 µg/mL | 3.5 to 12.5 µg/mL (≈ 8.47 to 30.2 µM) | 1 to 3.5 µg/mL (≈ 2.42 to 8.47 µM) | 3.5 to 12.5 µg/mL (≈ 8.47 to 30.2 µM) | 12.5 to 150 µg/mL (≈ 30.2 to 363 µM) | 3.5 to 12.5 µg/mL (≈ 8.47 to 30.2 µM) |  |  | 12.5 to 150 µg/mL (≈ 30.2 to 363 µM) | 12.5 to 150 µg/mL (≈ 30.2 to 363 µM) | 1 to 3.5 µg/mL (≈ 2.42 to 8.47 µM)
